Test results from PubChem BioAssay AID248 (DTP/NCI, 2004).
Inconclusive results and toxic doses are left out. Rule as the data show it: active = T/C of 150% or more; inactive = T/C below 125%.

Test system: L1210 leukemia ip in BDF1 mice, survival T/C
Test: NCI In Vivo Anticancer Drug Screen. Data for tumor model L1210 Leukemia (intraperitoneal) in B6D2F1 (BDF1) mice
Conditions: endpoint: mean survival time, higher = longer survival
Outline: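 Tumor cells were implanted, animals were treated, and survival was followed. The result divides the treated measurement by the vehicle-control measurement.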

[1] = dose: 100.0 mg/kg/injection, schedule: Q04DX003 (ip), vehicle: Klucel (hydroxypropylcellulose) (HPC)
[2] = dose: 200.0 mg/kg/injection, schedule: Q04DX003 (ip), vehicle: Klucel (hydroxypropylcellulose) (HPC)
[3] = dose: 400.0 mg/kg/injection, schedule: Q04DX003 (ip), vehicle: Klucel (hydroxypropylcellulose) (HPC)
[4] = dose: 100.0 mg/kg/injection, schedule: Q01DX001 (ip), vehicle: Klucel (hydroxypropylcellulose) (HPC)
[5] = dose: 100.0 mg/kg/injection, schedule: Q01DX009 (ip), vehicle: Klucel (hydroxypropylcellulose) (HPC)
[6] = dose: 200.0 mg/kg/injection, schedule: Q01DX001 (ip), vehicle: Klucel (hydroxypropylcellulose) (HPC)
[7] = dose: 200.0 mg/kg/injection, schedule: Q01DX009 (ip), vehicle: Klucel (hydroxypropylcellulose) (HPC)
[8] = dose: 100.0 mg/kg/injection, schedule: Q01DX009 (ip), vehicle: saline with Tween-80
[9] = dose: 200.0 mg/kg/injection, schedule: Q01DX009 (ip), vehicle: saline with Tween-80
[10] = dose: 400.0 mg/kg/injection, schedule: Q01DX009 (ip), vehicle: saline with Tween-80
[11] = dose: 400.0 mg/kg/injection, schedule: Q01DX009 (ip), vehicle: Klucel (hydroxypropylcellulose) (HPC)
[12] = dose: 100.0 mg/kg/injection, schedule: Q04DX003 (ip), vehicle: saline with Tween-80
[13] = dose: 200.0 mg/kg/injection, schedule: Q04DX003 (ip), vehicle: saline with Tween-80
[14] = dose: 100.0 mg/kg/injection, schedule: Q01DX009 (ip), vehicle: saline
[15] = dose: 200.0 mg/kg/injection, schedule: Q01DX009 (ip), vehicle: saline

Measured: T/C

CC(C)(C)C1=CC(=O)C=CC1=O
inactive: dose: 50.0 mg/kg/injection, schedule: Q01DX009 (ip), vehicle: water 93 % of control | dose: 100.0 mg/kg/injection, schedule: Q01DX001 (ip), vehicle: water 100 % of control | dose: 100.0 mg/kg/injection, schedule: Q01DX009 (ip), vehicle: water 97 % of control | dose: 200.0 mg/kg/injection, schedule: Q01DX001 (ip), vehicle: water 102 % of control

COc1cc(C=Nc2cc(Br)c(O)c(Br)c2)ccc1N(CCCCl)CCCCl
inactive: [1] 97 % of control | [2] 100 % of control | [3] 102 % of control

CCOC(=O)C[N+]1(C)C2CCC1CC(O)C2 (stereo unspecified)
inactive: dose: 100.0 mg/kg/injection, schedule: Q01DX001 (ip), vehicle: saline 94 % of control | dose: 200.0 mg/kg/injection, schedule: Q01DX001 (ip), vehicle: saline 90 % of control | dose: 400.0 mg/kg/injection, schedule: Q01DX001 (ip), vehicle: saline 94 % of control

O=C(NNC(=O)c1ccc(Br)cc1)c1ccc(Cl)cc1
inactive: [4] 100 % of control | [5] 91 % of control | [6] 92 % of control | [7] 93 % of control | dose: 400.0 mg/kg/injection, schedule: Q01DX001 (ip), vehicle: Klucel (hydroxypropylcellulose) (HPC) 92 % of control

CCOC(=O)Sc1nc2ccccc2[nH]1
inactive: dose: 75.0 mg/kg/injection, schedule: Q04DX003 (ip), vehicle: saline with Tween-80 101 % of control | dose: 150.0 mg/kg/injection, schedule: Q04DX003 (ip), vehicle: saline with Tween-80 98 % of control | dose: 300.0 mg/kg/injection, schedule: Q04DX003 (ip), vehicle: saline with Tween-80 87 % of control

NSc1nc2ccccc2s1
inactive: [8] 95 % of control | dose: 100.0 mg/kg/injection, schedule: Q04DX003 (ip), vehicle: saline sonified 105 % of control | [9] 93 % of control | dose: 200.0 mg/kg/injection, schedule: Q04DX003 (ip), vehicle: saline sonified 96 % of control | dose: 400.0 mg/kg/injection, schedule: Q04DX003 (ip), vehicle: saline sonified 107 % of control

CC1C=CCP1(C)=O (stereo unspecified)
inactive: [8] 91 % of control | [9] 96 % of control | [10] 94 % of control

N#CCc1[nH]nc(N)c1C#N
inactive: [5] 95 % of control | [1] 89 % of control | [7] 102 % of control | [2] 93 % of control | [11] 96 % of control | [3] 91 % of control

Nc1ncnc2nc(-c3ccc(OCCCOc4ccccc4)c(Cl)c3)[nH]c12
inactive: dose: 6.25 mg/kg/injection, schedule: Q01DX001 (ip), vehicle: saline with Tween-80 94 % of control | dose: 12.5 mg/kg/injection, schedule: Q01DX001 (ip), vehicle: saline with Tween-80 89 % of control | dose: 50.0 mg/kg/injection, schedule: Q01DX001 (ip), vehicle: saline with Tween-80 88 % of control

CC1(C)CC[N+]1(C)Cc1ccccc1 (stereo unspecified)
inactive: dose: 6.25 mg/kg/injection, schedule: Q01DX009 (ip), vehicle: saline 95 % of control | dose: 6.25 mg/kg/injection, schedule: Q04DX003 (ip), vehicle: saline 90 % of control | dose: 12.0 mg/kg/injection, schedule: Q01DX001 (ip), vehicle: saline 102 % of control | dose: 12.5 mg/kg/injection, schedule: Q01DX009 (ip), vehicle: saline 109 % of control | dose: 12.5 mg/kg/injection, schedule: Q04DX003 (ip), vehicle: saline 101 % of control | dose: 25.0 mg/kg/injection, schedule: Q01DX001 (ip), vehicle: saline 97 % of control | dose: 25.0 mg/kg/injection, schedule: Q01DX009 (ip), vehicle: saline 97 % of control | dose: 25.0 mg/kg/injection, schedule: Q04DX003 (ip), vehicle: saline 91 % of control

Cc1ccc([N+](=O)[O-])cc1NS(=O)(=O)c1cc(Cl)c(Cl)cc1Cl
inactive: [5] 95 % of control | [7] 108 % of control | [11] 90 % of control

NC(CCSCc1ccccc1)C(=O)O (stereo unspecified)
inactive: dose: 12.5 mg/kg/injection, schedule: Q04DX002 (ip), vehicle: Klucel (hydroxypropylcellulose) (HPC) 107 % of control | dose: 25.0 mg/kg/injection, schedule: Q04DX002 (ip), vehicle: Klucel (hydroxypropylcellulose) (HPC) 97 % of control | dose: 50.0 mg/kg/injection, schedule: Q04DX002 (ip), vehicle: Klucel (hydroxypropylcellulose) (HPC) 97 % of control | dose: 100.0 mg/kg/injection, schedule: Q04DX002 (ip), vehicle: Klucel (hydroxypropylcellulose) (HPC) 113 % of control | dose: 200.0 mg/kg/injection, schedule: Q04DX002 (ip), vehicle: Klucel (hydroxypropylcellulose) (HPC) 98 % of control | dose: 400.0 mg/kg/injection, schedule: Q04DX002 (ip), vehicle: Klucel (hydroxypropylcellulose) (HPC) 98 % of control

C[C@]12CC[C@H](O)C[C@H]1CC[C@@H]1[C@@H]2CC[C@]2(C)[C@@H](C3=CC(=O)OC3)[C@@H](O)C[C@]12O
inactive: dose: 50.0 mg/kg/injection, schedule: Q01DX001 (ip), vehicle: carboxymethylcellulose (CMC) 101 % of control | dose: 100.0 mg/kg/injection, schedule: Q01DX001 (ip), vehicle: carboxymethylcellulose (CMC) 107 % of control | dose: 200.0 mg/kg/injection, schedule: Q01DX001 (ip), vehicle: carboxymethylcellulose (CMC) 101 % of control | dose: 400.0 mg/kg/injection, schedule: Q01DX001 (ip), vehicle: carboxymethylcellulose (CMC) 102 % of control

O=C1CNc2ccccc2N1
inactive: [1] 103 % of control | [2] 92 % of control | [3] 92 % of control

COc1ccc(CCNC(=O)CCN2C(=O)c3ccccc3C2=O)cc1OC
inactive: [8] 115 % of control | [12] 97 % of control | [9] 115 % of control | [13] 100 % of control | [10] 113 % of control | dose: 400.0 mg/kg/injection, schedule: Q04DX003 (ip), vehicle: saline with Tween-80 112 % of control

CN(C)c1ccc(/C=N/NC(=O)c2ccncc2)c(Cl)c1
inactive: [5] 96 % of control | [7] 89 % of control | [11] 91 % of control

CCN1/C(=C\c2ccc3cc(OC)ccc3[n+]2CC)[Se]c2ccc(OC)cc21
inactive: dose: 1.0 mg/kg/injection, schedule: Q01DX001 (ip), vehicle: other 98 % of control | dose: 2.0 mg/kg/injection, schedule: Q01DX001 (ip), vehicle: other 103 % of control | dose: 4.0 mg/kg/injection, schedule: Q01DX001 (ip), vehicle: other 103 % of control

NC(=O)N1C(=O)C2C3C=CC(O3)C2C1=O (stereo unspecified)
inactive: [14] 96 % of control | dose: 100.0 mg/kg/injection, schedule: Q04DX003 (ip), vehicle: saline 98 % of control | [15] 95 % of control | dose: 200.0 mg/kg/injection, schedule: Q04DX003 (ip), vehicle: saline 101 % of control | dose: 400.0 mg/kg/injection, schedule: Q04DX003 (ip), vehicle: saline 101 % of control

OC(c1nc2ccc(Cl)cc2[nH]1)C(O)c1nc2ccc(Cl)cc2[nH]1 (stereo unspecified)
inactive: dose: 75.0 mg/kg/injection, schedule: Q01DX001 (ip), vehicle: other 102 % of control | dose: 150.0 mg/kg/injection, schedule: Q01DX001 (ip), vehicle: other 96 % of control | dose: 300.0 mg/kg/injection, schedule: Q01DX001 (ip), vehicle: other 91 % of control

CCOC(=O)CC1(C)NC(=O)NC1=O (stereo unspecified)
inactive: [14] 104 % of control | [15] 90 % of control | dose: 400.0 mg/kg/injection, schedule: Q01DX009 (ip), vehicle: saline 98 % of control

CC1(C)C(N2CCOCC2)CS1(=O)=O (stereo unspecified)
inactive: dose: 50.0 mg/kg/injection, schedule: Q01DX009 (ip), vehicle: saline with Tween-80 101 % of control | [8] 103 % of control | [12] 94 % of control | [9] 104 % of control | [13] 88 % of control

Cc1cc(C(O)c2ccccn2)c2ccccc2n1 (stereo unspecified)
inactive: dose: 50.0 mg/kg/injection, schedule: Q01DX009 (ip), vehicle: Klucel (hydroxypropylcellulose) (HPC) 102 % of control | [4] 106 % of control | [5] 96 % of control | [6] 96 % of control
